Results taken from patent US20240216352A1 (priority 2022, published 2024).

Tests used:
LPA1 [1] = biological target: T1, LPA1 (Homo sapiens, UniProt Q92633); assay: LPA1 antagonism (Kb) in normal human lung fibroblasts; format: cell-based; design: LPA1Kb=5.9 nM in normal human lung fibroblasts; endogenous in cells; host or cells: normal human lung fibroblasts
From the text: (§1) Compound A is currently in clinical development as a therapy for IPF and PF-ILD.

LPA1 [2] = biological target: T1, LPA1; assay: LPA1 antagonism (Kb) in CHO cells overexpressing human LPA1; format: cell-based; design: expressed in transfected cells; host or cells: CHO cells
From the text: as §1

healthy participants = assay: Phase 1 Part B multiple ascending dose (MAD): blood pressure; format: in vivo, human; conditions: for Mean SBP: in mmHg (unit assumed)
Experimental: The study was performed in 3 parts in 112 healthy male and female participants, including 24 Japanese participants. Female participants were to be not of childbearing potential. The present study was designed to evaluate the safety and tolerability, PK, and exploratory PD of an oral suspension of Compound A. Parts A and B (Cohort B1 only) enrolled healthy participants and was conducted at a site in The Netherlands and Part B (Cohort B2 to B5) enrolled healthy non-Japanese participants and was conducted at a site in the United Kingdom (UK). Part C enrolled healthy Japanese participants and was conducted at the same site in the UK.
Part B was a MAD study in a planned number of 6 sequential dose escalation cohorts (10 mg QD, 30 mg QD, 30 mg BID, 60 mg BID, 125 mg BID, and ≤250 mg BID) of 8 healthy participants (6 active+2 placebo) each, under fasted conditions. However, Cohort B6 (≤250 mg BID) was cancelled because sufficient safety and PK data had been obtained at doses up to 125 mg BID. Eligible participants received study drug (Compound A or placebo) administered orally for 14 days.
Physical examinations, vital sign measurements (including orthostasis testing in Cohort A6, Cohort B3 to B5, and C1 to C3 at selected time points), 12-lead electrocardiogram (ECG), and clinical laboratory evaluations were performed at selected times throughout the study. In addition, Holter monitoring was performed for the first 24 hours post dose on Day 1 in Part A (not in FE/pH cohort), and also for the first 24 hours post dose on Day 1 and Day 14 in Parts B and C. Participants were closely monitored for adverse events (AEs). Blood samples were collected for up to 14 days (follow-up visit) after (last) study drug administration for PK analysis. In addition, blood and urine were collected for exploratory biomarker assessments and for biobanking of samples for potential analyses. Urine was collected for potential PK analysis for up to 96 hours after a single dose of Compound A or placebo was administered in the SAD part, and for up to 24 hours after the first (morning) dose of study drug on Day 1 and for up to 24 hours after the last (morning) dose of study drug on Day 14 in the MAD parts.

T1 sequence (Q92633 whole entry): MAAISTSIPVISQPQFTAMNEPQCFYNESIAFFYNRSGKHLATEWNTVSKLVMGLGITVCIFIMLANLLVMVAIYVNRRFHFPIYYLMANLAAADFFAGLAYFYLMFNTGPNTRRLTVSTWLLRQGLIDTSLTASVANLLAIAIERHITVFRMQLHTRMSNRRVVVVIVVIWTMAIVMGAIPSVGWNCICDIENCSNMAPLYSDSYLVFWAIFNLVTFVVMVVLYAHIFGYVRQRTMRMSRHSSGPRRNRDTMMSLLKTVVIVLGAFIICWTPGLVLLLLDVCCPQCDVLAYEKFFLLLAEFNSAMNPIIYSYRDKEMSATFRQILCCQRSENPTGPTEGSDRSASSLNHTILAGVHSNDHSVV

SMILES: CCCN(C)C(=O)OCc1c(-c2ccc(O[C@H]3CCC[C@H](C(=O)O)C3)c(C)n2)nnn1C [Compound A, (1S,3S)-3-((2-methyl-6-(1-methyl-5-(((methyl(propyl)carbamoyl)-oxy)methyl)-1H-1,2,3-triazol-4-yl)pyridin-3-yl)oxy)cyclohexane-1-carboxylic acid]
- Kb (LPA1 [1]): 5.9 nM
- Kb (LPA1 [2]): 6.9 nM
- Maximum of mean (±SD) reduction in DBP from baseline (healthy participants; MAD 10 mg QD (B1)): 6.8 ± 2.64 mmHg
- Time of maximum mean DBP reduction (healthy participants; MAD 10 mg QD (B1)): 1-5 Day-h
- Mean DBP (healthy participants; MAD 10 mg QD, D 1 2 h): 70.2 mmHg
- Mean SBP (healthy participants; MAD 10 mg QD, D 1 2 h): 112.2
- Mean DBP (healthy participants; MAD 10 mg QD, D 1 4 h): 65.8 mmHg
- Mean SBP (healthy participants; MAD 10 mg QD, D 1 4 h): 109.5
- Mean DBP (healthy participants; MAD 10 mg QD, D 1 8 h): 68.7 mmHg
- Mean SBP (healthy participants; MAD 10 mg QD, D 1 8 h): 112.8
- Mean DBP (healthy participants; MAD 10 mg QD, D 2 24 h): 65.3 mmHg
- Mean SBP (healthy participants; MAD 10 mg QD, D 2 24 h): 108.5
- Mean DBP (healthy participants; MAD 10 mg QD, D 14 312 h): 69.3 mmHg
- Mean SBP (healthy participants; MAD 10 mg QD, D 14 312 h): 112.8
- Mean DBP (healthy participants; MAD 10 mg QD, D 14 314 h): 67.5 mmHg
- Mean SBP (healthy participants; MAD 10 mg QD, D 14 314 h): 113.5
- Mean DBP (healthy participants; MAD 10 mg QD, D 14 317 h): 64.3 mmHg
- Mean SBP (healthy participants; MAD 10 mg QD, D 14 317 h): 114.5
- Mean DBP (healthy participants; MAD 10 mg QD, D 14 320 h): 67.5 mmHg
- Mean SBP (healthy participants; MAD 10 mg QD, D 14 320 h): 111.2
- Mean DBP (healthy participants; MAD 10 mg QD, D 15 336 h): 66.8 mmHg
- Mean SBP (healthy participants; MAD 10 mg QD, D 15 336 h): 110.8
- Maximum of mean (±SD) reduction in DBP from baseline (healthy participants; MAD 30 mg BID (B3)): 11.2 ± 4.58 mmHg
- Maximum of mean (±SD) reduction in SBP from baseline (healthy participants; MAD 30 mg BID (B3)): 15.8 ± 10.19 mmHg
- Time of maximum mean DBP reduction (healthy participants; MAD 30 mg BID (B3)): 1-5 Day-h
- Time of maximum mean SBP reduction (healthy participants; MAD 30 mg BID (B3)): 1-5 Day-h
- Mean DBP (healthy participants; MAD 30 mg BID, D 1 2 h): 63.3 mmHg
- Mean SBP (healthy participants; MAD 30 mg BID, D 1 2 h): 106.5
- Mean DBP (healthy participants; MAD 30 mg BID, D 1 4 h): 62.7 mmHg
- Mean SBP (healthy participants; MAD 30 mg BID, D 1 4 h): 107.2
- Mean DBP (healthy participants; MAD 30 mg BID, D 1 8 h): 63.2 mmHg
- Mean SBP (healthy participants; MAD 30 mg BID, D 1 8 h): 106.3
- Mean DBP (healthy participants; MAD 30 mg BID, D 2 24 h): 66.7 mmHg
- Mean SBP (healthy participants; MAD 30 mg BID, D 2 24 h): 114.7
- Mean DBP (healthy participants; MAD 30 mg BID, D 14 312 h): 68.7 mmHg
- Mean SBP (healthy participants; MAD 30 mg BID, D 14 312 h): 119.7
- Mean DBP (healthy participants; MAD 30 mg BID, D 14 314 h): 63.8 mmHg
- Mean SBP (healthy participants; MAD 30 mg BID, D 14 314 h): 109.7
- Mean DBP (healthy participants; MAD 30 mg BID, D 14 317 h): 61 mmHg
- Mean SBP (healthy participants; MAD 30 mg BID, D 14 317 h): 114.3
- Mean SBP (healthy participants; MAD 30 mg BID, D 14 320 h): 110.0
- Mean DBP (healthy participants; MAD 30 mg BID, D 15 336 h): 65.3 mmHg
- Mean SBP (healthy participants; MAD 30 mg BID, D 15 336 h): 116.3
- Maximum of mean (±SD) reduction in DBP from baseline (healthy participants; MAD 30 mg QD (B2)): 8.8 ± 4.62 mmHg
- Maximum of mean (±SD) reduction in SBP from baseline (healthy participants; MAD 30 mg QD (B2)): 10.7 ± 7.06 mmHg
- Mean DBP (healthy participants; MAD 30 mg QD, D 1 2 h): 66.5 mmHg
- Mean SBP (healthy participants; MAD 30 mg QD, D 1 2 h): 104.8
- Mean DBP (healthy participants; MAD 30 mg QD, D 1 4 h): 67.8 mmHg
- Mean SBP (healthy participants; MAD 30 mg QD, D 1 4 h): 102.3
- Mean DBP (healthy participants; MAD 30 mg QD, D 1 8 h): 66 mmHg
- Mean SBP (healthy participants; MAD 30 mg QD, D 1 8 h): 107.2
- Mean DBP (healthy participants; MAD 30 mg QD, D 2 24 h): 67.3 mmHg
- Mean SBP (healthy participants; MAD 30 mg QD, D 2 24 h): 114.3
- Mean DBP (healthy participants; MAD 30 mg QD, D 14 312 h): 63.3 mmHg
- Mean SBP (healthy participants; MAD 30 mg QD, D 14 312 h): 110.0
- Mean DBP (healthy participants; MAD 30 mg QD, D 14 314 h): 63.5 mmHg
- Mean SBP (healthy participants; MAD 30 mg QD, D 14 314 h): 101.7
- Mean DBP (healthy participants; MAD 30 mg QD, D 14 317 h): 61.8 mmHg
- Mean SBP (healthy participants; MAD 30 mg QD, D 14 317 h): 102.3
- Mean DBP (healthy participants; MAD 30 mg QD, D 14 320 h): 63.2 mmHg
- Mean SBP (healthy participants; MAD 30 mg QD, D 14 320 h): 101.5
- Mean DBP (healthy participants; MAD 30 mg QD, D 15 336 h): 62.3 mmHg
- Mean SBP (healthy participants; MAD 30 mg QD, D 15 336 h): 107.3
- Maximum of mean (±SD) reduction in DBP from baseline (healthy participants; MAD 60 mg BID (B4)): 8.3 ± 6.89 mmHg
- Maximum of mean (±SD) reduction in SBP from baseline (healthy participants; MAD 60 mg BID (B4)): 17.5 ± 11.31 mmHg
- Time of maximum mean DBP reduction (healthy participants; MAD 60 mg BID (B4)): 3-4 Day-h
- Mean DBP (healthy participants; MAD 60 mg BID, D 1 2 h): 64.5 mmHg
- Mean SBP (healthy participants; MAD 60 mg BID, D 1 2 h): 110.2
- Mean DBP (healthy participants; MAD 60 mg BID, D 1 4 h): 66 mmHg
- Mean SBP (healthy participants; MAD 60 mg BID, D 1 4 h): 106.7
- Mean DBP (healthy participants; MAD 60 mg BID, D 1 8 h): 64.7 mmHg
- Mean SBP (healthy participants; MAD 60 mg BID, D 1 8 h): 109.3
- Mean DBP (healthy participants; MAD 60 mg BID, D 2 24 h): 65.7 mmHg
- Mean SBP (healthy participants; MAD 60 mg BID, D 2 24 h): 118.8
- Mean DBP (healthy participants; MAD 60 mg BID, D 14 312 h): 64.8 mmHg
- Mean SBP (healthy participants; MAD 60 mg BID, D 14 312 h): 111.8
- Mean DBP (healthy participants; MAD 60 mg BID, D 14 314 h): 64 mmHg
- Mean SBP (healthy participants; MAD 60 mg BID, D 14 314 h): 110.5
- Mean DBP (healthy participants; MAD 60 mg BID, D 14 317 h): 62.5 mmHg
- Mean SBP (healthy participants; MAD 60 mg BID, D 14 317 h): 114.8
- Mean DBP (healthy participants; MAD 60 mg BID, D 14 320 h): 63 mmHg
- Mean SBP (healthy participants; MAD 60 mg BID, D 14 320 h): 115.5
- Mean DBP (healthy participants; MAD 60 mg BID, D 15 336 h): 64.5 mmHg
- Mean SBP (healthy participants; MAD 60 mg BID, D 15 336 h): 114.5
- Maximum of mean (±SD) reduction in DBP from baseline (healthy participants; MAD 125 mg BID (B5)): 14.7 ± 5.68 mmHg
- Maximum of mean (±SD) reduction in SBP from baseline (healthy participants; MAD 125 mg BID (B5)): 14.5 ± 5.86 mmHg
- Time of maximum mean DBP reduction (healthy participants; MAD 125 mg BID (B5)): 12-12 Day-h
- Mean DBP (healthy participants; MAD 125 mg BID, D 1 2 h): 62.3 mmHg
- Mean SBP (healthy participants; MAD 125 mg BID, D 1 2 h): 112.2
- Mean DBP (healthy participants; MAD 125 mg BID, D 1 4 h): 64.7 mmHg
- Mean SBP (healthy participants; MAD 125 mg BID, D 1 4 h): 112.2
- Mean DBP (healthy participants; MAD 125 mg BID, D 1 8 h): 64.7 mmHg
- Mean SBP (healthy participants; MAD 125 mg BID, D 1 8 h): 107.3
- Mean DBP (healthy participants; MAD 125 mg BID, D 2 24 h): 66.3 mmHg
- Mean SBP (healthy participants; MAD 125 mg BID, D 2 24 h): 118.8
- Mean DBP (healthy participants; MAD 125 mg BID, D 14 312 h): 62 mmHg
- Mean SBP (healthy participants; MAD 125 mg BID, D 14 312 h): 111.3
- Mean DBP (healthy participants; MAD 125 mg BID, D 14 314 h): 65 mmHg
- Mean SBP (healthy participants; MAD 125 mg BID, D 14 314 h): 116.0
- Mean DBP (healthy participants; MAD 125 mg BID, D 14 317 h): 59.2 mmHg
- Mean SBP (healthy participants; MAD 125 mg BID, D 14 317 h): 116.3
- Mean DBP (healthy participants; MAD 125 mg BID, D 14 320 h): 61.8 mmHg
- Mean SBP (healthy participants; MAD 125 mg BID, D 14 320 h): 114.5
- Mean DBP (healthy participants; MAD 125 mg BID, D 15 336 h): 63 mmHg
- Mean SBP (healthy participants; MAD 125 mg BID, D 15 336 h): 111.3
- BP reductions versus placebo (healthy participants; MAD BID groups): no clear differences between placebo and the Compound A groups
- Dose dependence of mean SBP and DBP reductions (healthy participants; MAD QD groups): reductions generally occurred in a Compound A dose-dependent manner
